From US9833497B2, “Human originated EGF domain proteins and use of the same” (CHENGDU SOURCEBIO LIMITED-LIABILITY COMPANY, priority 2013, dated 2017)

How the values were obtained:
Assay type in all cases: cell-based
Citrobacter diversus = assay: MIC against Gram-negative bacteria: Citrobacter diversus; conditions: 5×10^5 CFU/mL; for MIC against C. diversus: 96-well plate, 37° C., 10 h; for MIC / MIC (μg/mL) C. diversus: C. diversus, 10 h cultivation at 37° C.
Method in brief: (§1)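 Bacteria grown in LB at 37° C to McFarland 0.5, resuspended and seeded at 5×10^5 CFU/mL in 96-well plates. Purified human EGF-domain proteins two-fold serially diluted, triplicate wells; cultured at 37° C, shaking 175 rpm. MIC = lowest protein concentration with no growth.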

E. coli BL21 = assay: MIC against Gram-negative bacteria: E. coli BL21; conditions: 5×10^5 CFU/mL; for MIC against E. coli BL21: 96-well plate, 37° C., 10 h; for MIC / MIC (μg/mL) E. coli BL21: 10 h cultivation at 37° C.
Method in brief: as §1

Enterobacter cloacae = assay: MIC against Gram-negative bacteria: Enterobacter cloacae; conditions: 5×10^5 CFU/mL; for MIC against E. cloacae: 96-well plate, 37° C., 10 h; for MIC / MIC (μg/mL) E. cloacae: E. cloacae, 10 h cultivation at 37° C.
Method in brief: as §1

Aeromonas hydrophila = assay: MIC against Gram-negative bacteria: Aeromonas hydrophila; conditions: 5×10^5 CFU/mL; for MIC against A. hydrophila: 96-well plate, 37° C., 10 h; for MIC / MIC (μg/mL) A. hydrophila: A. hydrophila, 10 h cultivation at 37° C.
Method in brief: as §1

Proteus vulgaris = assay: MIC against Gram-negative bacteria: Proteus vulgaris; conditions: 5×10^5 CFU/mL; for MIC against P. vulgaris: 96-well plate, 37° C., 10 h; for MIC / MIC (μg/mL) P. vulgaris: P. vulgaris, 10 h cultivation at 37° C.
Method in brief: as §1

E. coli DH5α = assay: Antibacterial activity: MIC and growth curve against E. coli DH5α in 96-well plate; conditions: minimal inhibitory concentration against E. coli DH5α; 96-well plate, 5×10^5 CFU/mL, 37° C., judged after 8 h
Method in brief: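 MIC taken as lowest protein level with no bacterial growth, tracked by A600 every 30 min during 37 °C, 175 rpm culture. Two-fold protein series 50-12.5 μg/mL final, triplicate wells, against 5×10^5 CFU/mL of LB-washed mid-log cells.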

Klebsiella pneumonia = assay: MIC against Gram-negative bacteria: Klebsiella pneumonia; conditions: 5×10^5 CFU/mL; for MIC against K. pneumonia: 96-well plate, 37° C., 10 h; for MIC / MIC (μg/mL) K. pneumonia: K. pneumonia, 10 h cultivation at 37° C.
Method in brief: as §1

Proteus mirabilis = assay: MIC against Gram-negative bacteria: Proteus mirabilis; conditions: 5×10^5 CFU/mL; for MIC against P. mirabilis: 96-well plate, 37° C., 10 h; for MIC / MIC (μg/mL) P. mirabilis: P. mirabilis, 10 h cultivation at 37° C.
Method in brief: as §1

Serratia marcescens = assay: MIC against Gram-negative bacteria: Serratia marcescens; conditions: 5×10^5 CFU/mL; for MIC against S. marcescens: 96-well plate, 37° C., 10 h; for MIC / MIC (μg/mL) S. marcescens: S. marcescens, 10 h cultivation at 37° C.
Method in brief: as §1

Moraxella catarrhalis = assay: MIC against Gram-negative bacteria: Moraxella catarrhalis; conditions: 5×10^5 CFU/mL; for MIC against M. catarrhalis: 96-well plate, 37° C., 10 h; for MIC / MIC (μg/mL) M. catarrhalis: M. catarrhalis, 10 h cultivation at 37° C.
Method in brief: as §1

Pseudomonas aeruginosa = assay: MIC against Gram-negative bacteria: Pseudomonas aeruginosa; conditions: 5×10^5 CFU/mL; for MIC against P. aeruginosa: 96-well plate, 37° C., 10 h; for MIC / MIC (μg/mL) P. aeruginosa: P. aeruginosa, 10 h cultivation at 37° C.
Method in brief: as §1

PRT1267 (CNHGNGGCQHSCDDTADGPECSCHPQYKMHTDGRSC; listed as Homo sapiens)
MIC against C. diversus (Citrobacter diversus; Citrobacter diversus): 12.5 µg/mL
MIC against E. coli BL21 (E. coli BL21; E. coli BL21): 25 µg/mL
MIC against E. cloacae (Enterobacter cloacae; Enterobacter cloacae): 12.5 µg/mL
MIC against A. hydrophila (Aeromonas hydrophila; Aeromonas hydrophila): 50 µg/mL
MIC against P. vulgaris (Proteus vulgaris; Proteus vulgaris): 25 µg/mL
MIC (E. coli DH5α): 12.5 µg/mL
MIC against K. pneumonia (Klebsiella pneumonia; Klebsiella pneumonia): 25 µg/mL
MIC against P. mirabilis (Proteus mirabilis; Proteus mirabilis): 50 µg/mL
MIC against S. marcescens (Serratia marcescens; Serratia marcescens): 12.5 µg/mL
MIC against M. catarrhalis (Moraxella catarrhalis; Moraxella catarrhalis): 25 µg/mL
MIC against P. aeruginosa (Pseudomonas aeruginosa; Pseudomonas aeruginosa): 50 µg/mL

PRT439 (DINECQESSPCHQRCFNAIGSFHCGCEPGYQLKGRKCM; listed as Homo sapiens)
MIC (Citrobacter diversus): 25 µg/mL
MIC (E. coli BL21; E. coli BL21): 12.5 µg/mL
MIC (Enterobacter cloacae): 25 µg/mL
MIC (Aeromonas hydrophila): 12.5 µg/mL
MIC (Proteus vulgaris): 50 µg/mL
MIC (E. coli DH5α): 25 µg/mL
MIC (Klebsiella pneumonia): 50 µg/mL
MIC (Proteus mirabilis): 12.5 µg/mL
MIC (Serratia marcescens): 12.5 µg/mL
MIC (Moraxella catarrhalis): 50 µg/mL
MIC (Pseudomonas aeruginosa): 25 µg/mL

PRT544 (CDCGARLCDELTGQCICPPRTIPPDCLLCQPQTFGCHPLVGCEE; listed as Homo sapiens)
MIC against C. diversus (Citrobacter diversus): 12.5 µg/mL
MIC against E. coli BL21 (E. coli BL21): 25 µg/mL
MIC against E. cloacae (Enterobacter cloacae): 12.5 µg/mL
MIC against A. hydrophila (Aeromonas hydrophila): 12.5 µg/mL
MIC against P. vulgaris (Proteus vulgaris): 12.5 µg/mL
MIC (E. coli DH5α): 12.5 µg/mL
MIC against K. pneumonia (Klebsiella pneumonia): 25 µg/mL
MIC against P. mirabilis (Proteus mirabilis): 12.5 µg/mL
MIC against S. marcescens (Serratia marcescens): 12.5 µg/mL
MIC against M. catarrhalis (Moraxella catarrhalis): 12.5 µg/mL
MIC against P. aeruginosa (Pseudomonas aeruginosa): 12.5 µg/mL

PRT212 (DIDECESGAHQCSEAQTCVNFHGGYRCV; listed as Homo sapiens)
MIC (μg/mL) C. diversus (Citrobacter diversus): 12.5 µg/mL
MIC (μg/mL) E. coli BL21 (E. coli BL21; E. coli BL21): 50 µg/mL
MIC (μg/mL) E. cloacae (Enterobacter cloacae): 12.5 µg/mL
MIC (μg/mL) A. hydrophila (Aeromonas hydrophila): 25 µg/mL
MIC (μg/mL) P. vulgaris (Proteus vulgaris): 12.5 µg/mL
MIC (E. coli DH5α): 12.5 µg/mL
MIC (μg/mL) K. pneumonia (Klebsiella pneumonia): 50 µg/mL
MIC (μg/mL) P. mirabilis (Proteus mirabilis): 12.5 µg/mL
MIC (μg/mL) S. marcescens (Serratia marcescens): 12.5 µg/mL
MIC (μg/mL) M. catarrhalis (Moraxella catarrhalis): 25 µg/mL
MIC (μg/mL) P. aeruginosa (Pseudomonas aeruginosa): 12.5 µg/mL

PRT432 (DVDECATDSHQCNPTQICINTEGGYTCSCTDGYWLLEGQCL; listed as Homo sapiens)
MIC (Citrobacter diversus): 25 µg/mL
MIC (E. coli BL21; E. coli BL21): 50 µg/mL
MIC (Enterobacter cloacae): 25 µg/mL
MIC (Aeromonas hydrophila): 50 µg/mL
MIC (Proteus vulgaris): 50 µg/mL
MIC (E. coli DH5α): 25 µg/mL
MIC (Klebsiella pneumonia): 12.5 µg/mL
MIC (Proteus mirabilis): 25 µg/mL
MIC (Serratia marcescens): 25 µg/mL
MIC (Moraxella catarrhalis): 12.5 µg/mL
MIC (Pseudomonas aeruginosa): 25 µg/mL

PRT1289 (LAEPCRGLQCLHGHCQASGTKGAHCVCDPGFSGELCE; listed as Homo sapiens)
MIC against C. diversus (Citrobacter diversus; Citrobacter diversus): 12.5 µg/mL
MIC against E. coli BL21 (E. coli BL21; E. coli BL21): 12.5 µg/mL
MIC against E. cloacae (Enterobacter cloacae; Enterobacter cloacae): 25 µg/mL
MIC against A. hydrophila (Aeromonas hydrophila; Aeromonas hydrophila): 12.5 µg/mL
MIC against P. vulgaris (Proteus vulgaris; Proteus vulgaris): 50 µg/mL
MIC (E. coli DH5α): 12.5 µg/mL
MIC against K. pneumonia (Klebsiella pneumonia; Klebsiella pneumonia): 12.5 µg/mL
MIC against P. mirabilis (Proteus mirabilis; Proteus mirabilis): 12.5 µg/mL
MIC against S. marcescens (Serratia marcescens; Serratia marcescens): 25 µg/mL
MIC against M. catarrhalis (Moraxella catarrhalis; Moraxella catarrhalis): 50 µg/mL
MIC against P. aeruginosa (Pseudomonas aeruginosa; Pseudomonas aeruginosa): 12.5 µg/mL

PRT259 (GGCHTDALCSYVGPGQSRCTCKLGFAGDGYQC; listed as Homo sapiens)
MIC (μg/mL) C. diversus (Citrobacter diversus): 50 µg/mL
MIC (μg/mL) E. coli BL21 (E. coli BL21; E. coli BL21): 25 µg/mL
MIC (μg/mL) E. cloacae (Enterobacter cloacae): 50 µg/mL
MIC (μg/mL) A. hydrophila (Aeromonas hydrophila): 12.5 µg/mL
MIC (μg/mL) P. vulgaris (Proteus vulgaris): 50 µg/mL
MIC (E. coli DH5α): 12.5 µg/mL
MIC (μg/mL) K. pneumonia (Klebsiella pneumonia): 12.5 µg/mL
MIC (μg/mL) P. mirabilis (Proteus mirabilis): 25 µg/mL
MIC (μg/mL) S. marcescens (Serratia marcescens): 25 µg/mL
MIC (μg/mL) M. catarrhalis (Moraxella catarrhalis): 12.5 µg/mL
MIC (μg/mL) P. aeruginosa (Pseudomonas aeruginosa): 50 µg/mL
